Columns and labels:
[1] = system: IL-6 secretion in the human mast cell line HMC 1.1; test: IL-6 production inhibition assay (IL-33 stimulated HMC 1.1 cells, IL-6 ELISA); assay type: cell-based; details: for inhibition at 1 µM: 1 μM compound, read-out: Inhibition of hIL-6 production (%) 1 μM; for inhibition at 10 µM: 10 μM compound, read-out: Inhibition of hIL-6 production (%) 10 μM
Protocol: Human mast cell line HMC 1.1 cells were cultured in medium (Iscove's Modified Dulbecco's Medium, IMDM, HyClone) supplemented with […] fetal bovine serum (FBS, HyClone) and 1% antibiotics and maintained at 37° C. with 5% CO2.
HMC 1.1 cells, which are non-adherent cells, were cultured in 0.5 mL of culture medium containing 200 nM of IL-33 wild type human recombinant protein after centrifugation of cells in culture flasks filled to […] capacity and incubated for 24 hours with […], 10 μM, 25 μM, 30 μM or 50 μM of Example compound.
Medium was harvested by centrifugation (2,000×g, 5 min) and stored at −80° C. until ELISA assay.
Experiments were performed according to the protocol using the Human IL-6 ELISA kit (abCam).
The average of the three values obtained in triplicate was calculated and the amount of IL-6 secretion was measured using a standard curve. The measured IL-6 secretion was converted to 100% based on the vehicle treatment sample value to obtain the vehicle %.

[2] = molecular target: T1, IL33 and ST2 binding (Homo sapiens, UniProt O95760); details: 30 µM;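 note: plate ELISA with coated Flag-tagged human IL-33 and His-tagged human ST2, bound ST2 detected by anti-His HRP and TMB absorbance at 450 nm, 2 h compound incubation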
T1 sequence (O95760 112-270 limits assumed): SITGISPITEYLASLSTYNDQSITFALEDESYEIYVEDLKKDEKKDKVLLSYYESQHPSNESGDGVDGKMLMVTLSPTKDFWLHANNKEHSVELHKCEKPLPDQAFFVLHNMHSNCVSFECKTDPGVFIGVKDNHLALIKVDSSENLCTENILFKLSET

[3] = system: Human liver cancer cell line HepG2 cells; test: Cellular viability, WST-8 assay, without or with human liver microsomes; assay type: cell-based; details: at 45 μM
Protocol: Human liver cancer cell line HepG2 cells were cultured in a medium (high glucose Dulbecco's Modified Eagle Medium, DMEM, HyClone) supplemented with 10% fetal bovine serum (FBS, HyClone) and 1% antibiotic in a thermostat maintained at 37° C. with 5% CO2.
HepG2 cells, which are adherent cells, were […] or presence of human liver microsomes (Gibco) and NADPH regenerating system.
Cell cultures were exchanged using […] of medium (high glucose Dulbecco's Modified Eagle Medium, DMEM, HyClone) and incubated for 24 hours.
After adding 10 μL of WST-8 (abCam), the absorbance was obtained at 460 nm after 5 seconds of orbital shaking with a microplate reader (Tecan, Spark©) 2 hours later.
The mean of the three values obtained in triplicate was calculated and expressed as % cellular viability compared to vehicle treatment.

inhibition [2] [%] | EC50 ([1]; read-out: Inhibition of hIL-6 production EC50) [nM] | SMILES | inhibition at 1 µM ([1]; 24 hours) [%] | inhibition at 10 µM ([1]; 24 hours) [%] | Cellular viability (%) (+) microsome ([3]; HepG2, with human liver microsomes) [at %] | Cellular viability (%) (−) microsome ([3]; HepG2, without human liver microsomes) [at %] | inhibition at 0.1 µM ([1]; 0.1 μM compound, 24 hours, read-out: Inhibition of hIL-6 production (%) 0.1 μM) [%]
-57 | – | CCOC(=O)c1nc(-c2ccc(C(F)(F)F)cc2)oc1-c1ccc(OC)c(OC)c1 [Compound 47, Ethyl 5-(3,4-dimethoxyphenyl)-2-(4-(trifluoromethyl)phenyl)oxazole-4-carboxylate] | 36 | 26 | – | – | –
87 | – | CCOC(=O)c1nc(-c2ccc(C(F)(F)F)cc2)oc1-c1cc(OC)cc(OC)c1 [Compound 48, Ethyl 5-(3,5-dimethoxyphenyl)-2-(4-(trifluoromethyl)phenyl)oxazole-4-carboxylate] | 22 | 39 | – | – | –
-65 | – | CCOC(=O)c1nc(-c2ccc(C(F)(F)F)cc2)oc1-c1cc(OC)c(OC)c(OC)c1 [Compound 49, Ethyl 2-(4-(trifluoromethyl)phenyl)-5-(3,4,5-trimethoxyphenyl)oxazole-4-carboxylate] | -2 | 16 | – | – | –
41 | – | CSc1ccc(-c2oc(-c3ccc(C(F)(F)F)cc3)nc2C(=O)NCCN2CCN(C(C)=O)CC2)cc1 [Compound 194, N-(2-(4-acetylpiperazin-1-yl)ethyl)-5-(4-(methylthio)phenyl)-2-(4-(trifluoromethyl)phenyl)oxazole-4-carboxamide] | 44 | 68 | – | – | –
99 | – | CC(=O)N1CCN(CCNC(=O)c2nc(-c3ccc(C(F)(F)F)cc3)oc2-c2cccnc2)CC1 [Compound 197, N-(2-(4-acetylpiperazin-1-yl)ethyl)-5-(pyridin-3-yl)-2-(4-(trifluoromethyl)phenyl)oxazole-4-carboxamide] | 62 | 70 | – | – | –
5 | – | COc1cccc(-c2oc(-c3ccc(C(F)(F)F)cc3)nc2C(=O)NCCN2CCN(C(C)=O)CC2)c1 [Compound 198, N-(2-(4-acetylpiperazin-1-yl)ethyl)-5-(3-methoxyphenyl)-2-(4-(trifluoromethyl)phenyl)oxazole-4-carboxamide] | 62 | 77 | – | – | –
87 | 640 | CCNC(=O)c1nc(-c2ccc(C(F)(F)F)cc2)oc1-c1cccc(OC)c1 [Compound 298, N-Ethyl-5-(3-methoxyphenyl)-2-(4-(trifluoromethyl)phenyl)oxazole-4-carboxamide] | 70 | 75 | – | – | 12
-17 | – | CCNC(=O)c1nc(-c2ccc(C(F)(F)F)cc2)oc1-c1ccccc1OC(F)(F)F [Compound 305, N-Ethyl-5-(2-(trifluoromethoxy)phenyl)-2-(4-(trifluoromethyl)phenyl)oxazole-4-carboxamide] | -4 | 26 | – | – | –
38 | – | CCCNC(=O)c1nc(-c2ccc(C(F)(F)F)cc2)oc1-c1ccccc1OC(F)(F)F [Compound 306, N-Propyl-5-(2-(trifluoromethoxy)phenyl)-2-(4-(trifluoromethyl)phenyl)oxazole-4-carboxamide] | -38 | 45 | – | – | –
-5 | – | CCNC(=O)c1nc(-c2ccc(C(F)(F)F)cc2)oc1-c1cccc(C#N)c1 [Compound 311, 5-(3-Cyanophenyl)-N-ethyl-2-(4-(Trifluoromethyl)phenyl)oxazole-4-carboxamide] | 64 | 80 | – | – | –
-47 | – | CCNC(=O)c1nc(-c2ccc(OC)cc2)oc1-c1ccccc1 [Compound 312, N-Ethyl-2-(4-methoxyphenyl)-5-phenyloxazole-4-carboxamide] | 66 | 81 | – | – | –

Continued, molecule first:

SMILES | inhibition [2] [%] | EC50 ([1]; read-out: Inhibition of hIL-6 production EC50) [nM] | inhibition at 1 µM ([1]; 24 hours) [%] | inhibition at 10 µM ([1]; 24 hours) [%] | Cellular viability (%) (+) microsome ([3]; HepG2, with human liver microsomes) [at %] | Cellular viability (%) (−) microsome ([3]; HepG2, without human liver microsomes) [at %] | inhibition at 0.1 µM ([1]; 0.1 μM compound, 24 hours, read-out: Inhibition of hIL-6 production (%) 0.1 μM) [%]
CCOC(=O)c1nc(-c2cc(F)cc(F)c2)oc1-c1ccccc1[N+](=O)[O-] [Compound 74, Ethyl 2-(3,5-difluorophenyl)-5-(2-nitrophenyl)oxazole-4-carboxylate] | – | – | – | – | 96 | 101 | –
CC(=O)N1CCN(CCNC(=O)c2nc(-c3ccccc3C(F)(F)F)oc2-c2ccccc2)CC1 [Compound 128, N-(2-(4-acetylpiperazin-1-yl)ethyl)-5-phenyl-2-(2-(trifluoromethyl)phenyl)oxazole-4-carboxamide] | -28 | – | 66 | 80 | – | – | –
CCCNC(=O)c1nc(-c2ccc(C(F)(F)F)cc2)oc1-c1cccc(OC)c1 [Compound 299, 5-(3-Methoxyphenyl)-N-propyl-2-(4-(Trifluoromethyl)phenyl)oxazole-4-carboxamide] | – | – | 40 | 57 | – | – | –
CCNC(=O)c1nc(-c2ccc(C(F)(F)F)cc2)oc1-c1ccc(OC)cc1 [Compound 300, N-Ethyl-5-(4-methoxyphenyl)-2-(4-(trifluoromethyl)phenyl)oxazole-4-carboxamide] | – | – | 37 | 47 | – | – | –
CCCNC(=O)c1nc(-c2ccc(C(F)(F)F)cc2)oc1-c1ccc(OC)cc1 [Compound 301, 5-(4-Methoxyphenyl)-N-propyl-2-(4-(Trifluoromethyl)phenyl)oxazole-4-carboxamide] | – | – | 21 | 31 | – | – | –
CCNC(=O)c1nc(-c2ccc(C(F)(F)F)cc2)oc1-c1ccc(OC)c(OC)c1 [Compound 302, 5-(3,4-dimethoxyphenyl)-N-ethyl-2-(4-(Trifluoromethyl)phenyl)oxazole-4-carboxamide] | – | – | -34 | -29 | – | – | –
CCNC(=O)c1nc(-c2ccc(C(F)(F)F)cc2)oc1-c1cc(OC)cc(OC)c1 [Compound 303, 5-(3,5-Dimethoxyphenyl)-N-ethyl-2-(4-(trifluoromethyl)phenyl)oxazole-4-carboxamide] | – | – | 26 | 26 | – | – | –
CCNC(=O)c1nc(-c2ccc(C(F)(F)F)cc2)oc1-c1cc(OC)c(OC)c(OC)c1 [Compound 304, N-Ethyl-2-(4-(trifluoromethyl)phenyl)-5-(3,4,5-trimethoxyphenyl)oxazole-4-carboxamide] | – | – | -47 | -74 | – | – | –
CCNC(=O)c1nc(-c2ccc(C(F)(F)F)cc2)oc1-c1ccncc1 [Compound 309, N-Ethyl-5-(pyridin-4-yl)-2-(4-(trifluoromethyl)phenyl)oxazole-4-carboxamide] | – | – | 56 | 51 | – | – | –
CCCNC(=O)c1nc(-c2ccc(C(F)(F)F)cc2)oc1-c1ccncc1 [Compound 310, N-Propyl-5-(pyridin-4-yl)-2-(4-(trifluoromethyl)phenyl)oxazole-4-carboxamide] | – | – | 49 | 58 | – | – | –
CCNC(=O)c1nc(-c2cc(F)cc(F)c2)oc1-c1ccccc1 [Compound 313, 2-(3,5-Difluorophenyl)-N-ethyl-5-phenyloxazole-4-carboxamide] | -29 | – | -7 | 27 | – | – | –
CCNC(=O)c1nc(-c2cccc(Cl)c2)oc1-c1ccccc1 [Compound 314, 2-(3-Chlorophenyl)-N-ethyl-5-phenyloxazole-4-carboxamide] | -18 | – | 10 | 81 | – | – | –
CCNC(=O)c1nc(-c2ccc(C#N)cc2)oc1-c1ccccc1 [Compound 315, 2-(4-cyanophenyl)-N-ethyl-5-phenyloxazole-4-carboxamide] | -4 | – | 47 | 61 | – | – | –
CCNC(=O)c1nc(-c2ccc(C(F)(F)F)cc2)oc1-c1cccc(O)c1 [Compound 318, N-Ethyl-5-(3-hydroxyphenyl)-2-(4-(trifluoromethyl)phenyl)oxazole-4-carboxamide] | – | – | 70 | 79 | – | – | –
CCCNC(=O)c1nc(-c2ccc(C(F)(F)F)cc2)oc1-c1cccc(O)c1 [Compound 319, 5-(3-Hydroxyphenyl)-N-propyl-2-(4-(trifluoromethyl)phenyl)oxazole-4-carboxamide] | – | – | 75 | 80 | – | – | –
CCNC(=O)c1nc(-c2ccc(C(F)(F)F)cc2)oc1-c1ccc(O)c(O)c1 [Compound 321, 5-(3,4-Dihydroxyphenyl)-N-ethyl-2-(4-(trifluoromethyl)phenyl)oxazole-4-carboxamide] | – | – | 50 | 72 | – | – | –

Source: US20240287052A1, “NOVEL OXAZOLE DERIVATIVE AND PHARMACEUTICAL COMPOSITION FOR PREVENTING OR TREATING ALLERGIC DISEASES COMPRISING THE SAME” (AZCURIS CO., LTD., priority 2021, published 2024)
